Data set [1] deals with T1, human cloned 5-HT6 receptors (Homo sapiens, UniProt P50406).
T1 construct: expressed in transfected cells
As to the kind of experiment: 5-HT6 receptor affinity, procedures outlined in WO98/27081. In kind it is binding. The conditions noted are these: read-out: pKi values at human cloned 5-HT6 receptors (converted). The text has this: Compounds can be tested following the procedures outlined in WO98/27081.

What is called melting point is the temperature of the solid-liquid transition.

T1 sequence (P50406 whole entry): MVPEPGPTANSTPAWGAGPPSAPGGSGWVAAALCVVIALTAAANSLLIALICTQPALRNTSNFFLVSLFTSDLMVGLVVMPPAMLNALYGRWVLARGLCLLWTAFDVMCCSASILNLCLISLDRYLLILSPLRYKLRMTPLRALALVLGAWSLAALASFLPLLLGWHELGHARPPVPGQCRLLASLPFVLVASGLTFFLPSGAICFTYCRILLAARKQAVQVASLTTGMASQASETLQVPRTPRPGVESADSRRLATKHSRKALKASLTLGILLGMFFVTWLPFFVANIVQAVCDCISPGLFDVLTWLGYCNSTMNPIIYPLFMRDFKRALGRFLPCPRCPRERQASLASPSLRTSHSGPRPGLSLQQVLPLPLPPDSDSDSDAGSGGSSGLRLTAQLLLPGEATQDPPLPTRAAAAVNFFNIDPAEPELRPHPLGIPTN

Regarding `Cl.O=S(=O)(Nc1ccc2c(c1)CCNCC2)c1ccc(Cl)cc1OC(F)(F)F` [Example E12, 7-(4-Chloro-2-trifluoromethoxy)phenylsulfonamido-2,3,4,5-tetrahydro-1H-benzo[d]azepine, hydrochloride], the melting point was 210 to 211 °C.

On to `O=S(=O)(Nc1ccc2c(c1)CCNCC2)c1ccc(Br)cc1OC(F)(F)F` [Example E6, 7-(4-Bromo-2-trifuoromethoxy)phenylsulfonamido-2,3,4,5-tetrahydro-1H-benzo[d]azepine], for which the Ki in data set [1] is < 3.16 nM. Consider `Cl.O=S(=O)(Nc1ccc2c(c1)CCNCC2)c1ccc(Br)cc1OC(F)(F)F` [Example E11, 7-(4Bromo-2-trifluoromethoxy)phenylsulfonamido-2,3,4,5-tetrahydro-1H-benzo[d]azepine, hydrochloride], for which the melting point was in the range of 231 to 233 °C. As to `O=S(=O)(Nc1ccc2c(c1)CCNCC2)c1ccc(Cl)cc1OC(F)(F)F` [Example E10, 7(4-Chloro-2-trifluoromethoxy)phenylsulfonamido-2,3,5-tetrahydro-1H-benzo[d]azepine], the Ki in data set [1] is < 3.16 nM.
